From patent EP0160546A2, “Cephalosporin compounds, and their production, and medicaments containing them” (YAMANOUCHI PHARMACEUTICAL CO. LTD., priority 1984, dated 1985)
Values after ≈ are worked out from the molar mass of the structure shown. Read-outs that look alike come from different tables or passages of the source.

What was measured:
[1] = system: E. coli NIHJ; assay: Antibacterial activity (minimum effective inhibitory concentration); format: cell-based; conditions: Escherichia coli, read-out: minimum effective inhibitory concentrations
From the text: (§1) Antibacterial activities (minimum effective inhbitory concentrations) of compounds of formula I (taken from the following Examples) are shown in the following Table.

[2] = system: Kleb. pneumoniae ATCC 10031; assay: as above; format: cell-based; conditions: Klebsiella pneumoniae, ATCC10031, read-out: minimum effective inhibitory concentrations
From the text: as §1

[3] = system: Ps. aeruginosa NCTC 10490; assay: as above; format: cell-based; conditions: Pseudomonas aeruginosa, NCTC10490, read-out: minimum effective inhibitory concentrations
From the text: as §1

[4] = system: Serr. marcescense NY-10; assay: as above; format: cell-based; conditions: read-out: minimum effective inhibitory concentrations
From the text: as §1

[5] = system: Staph. epidermidis IID 866; assay: as above; format: cell-based; conditions: Staphylococcus epidermidis, IID866, read-out: minimum effective inhibitory concentrations
From the text: as §1

[6] = Solubility in water; format: physicochemical

Row | Compound | MIC ([1]; E. coli NIHJ) [µg/mL] | MIC [2] [µg/mL] | MIC [3] [µg/mL] | MIC ([4]; Serr. marcescense NY-10) [µg/mL] | MIC [5] [µg/mL] | solubility [6] [mg/mL] | MIC [1] [µg/mL] | MIC [4] [µg/mL]
1 | CON=C(C(=O)NC1C(=O)N2C(C(=O)[O-])=C(C[n+]3ccc4c(c3)NC(=O)CO4)CSC12)c1csc(N)n1 (stereo not drawn) [Example 11, (Z)-7-[α-(2-amino-4-thiazolyl)-α-methoxyimino-acetamido]-3-[[6-(3-oxo-3,4-dihydro-2H-pyrido[4,3-b]-1,4-oxazinio)]methyl -Δ^3-cephem-4-carboxylate] | < 0.2 | < 0.2 | 1.56 (≈ 2.86 µM) | < 0.2 | 0.78 (≈ 1.43 µM) | – | – | –
2 | CO/N=C(\C(=O)N[C@@H]1C(=O)N2C(C(=O)[O-])=C(C[n+]3ccc(OCC(O)CO)c(N)c3)CS[C@H]12)c1csc(N)n1 (stereo partly drawn) [Example 6, (Z ) -7-[α-(2-amino-4-thiazolyl)-α-methoxyiminoacetamido]-3-[3-amino-4-(2,3-dihydroxypropyloxy)pyridiniomethyl]-Δ^3-cephem-4-carboxylate] | < 0.2 | < 0.2 | 1.56 (≈ 2.69 µM) | < 0.2 | 0.78 (≈ 1.35 µM) | – | – | –
3 | CO/N=C(\C(=O)N[C@@H]1C(=O)N2C(C(=O)[O-])=C(C[n+]3ccc(C)c(N)c3)CS[C@H]12)c1csc(N)n1 [Example 9, (Z)-1-[α-(2-amino-4-thiazolyl)-α-methoxyiminoacet--amido]-3-(3-amino-4-methylpyridiniomethyl)-Δ^3-cephem-4-carboxylic acid] | < 0.2 | < 0.2 | 1.56 (≈ 3.1 µM) | < 0.2 | 0.2 (≈ 0.397 µM) | – | – | –
4 | CO/N=C(\C(=O)N[C@@H]1C(=O)N2C(C(=O)[O-])=C(C[n+]3ccc(OC)c(N)c3)CS[C@H]12)c1csc(N)n1 [Example 5, (Z)-7-[α-(2-amino-4-thiazolyl)-α-methoxyiminoacetamido,]-3-(3-amino-4-methoxypyridiniomethyl)-Δ^3-cephem-4-carboxylate] | < 0.2 | < 0.2 | 1.56 (≈ 3 µM) | < 0.2 | 0.2 (≈ 0.385 µM) | > 230 | – | –
5 | CC(C)(O/N=C(\C(=O)N[C@@H]1C(=O)N2C(C(=O)[O-])=C(C[n+]3ccccc3)CS[C@H]12)c1csc(N)n1)C(=O)O [cefta-zidime, reference compound] | – | < 0.2 | 0.78 (≈ 1.43 µM) | – | 3.13 (≈ 5.73 µM) | – | < 0.2 | < 0.2
6 | CON=C(C(=O)NC1C(=O)N2C(C(=O)[O-])=C(C[n+]3ccc4c(c3)NCCO4)CSC12)c1csc(N)n1 (stereo not drawn) [Example 13, (Z)-7-[α-(2-amino-4-thiazolyl) -α-methoxyiminoacetamido]-3-[[6-(3,4-dihydro-2H-pyrido[4,3-b1-1,4-oxazinio)]methyl]-Δ^3-cephem-4-carboxylate] | < 0.2 | < 0.2 | 0.78 (≈ 1.47 µM) | < 0.2 | 0.39 (≈ 0.734 µM) | – | – | –
7 | CON=C(C(=O)NC1C(=O)N2C(C(=O)[O-])=C(C[n+]3ccc4c(c3)N(O)C(=O)CO4)CSC12)c1csc(N)n1 (stereo not drawn) [Example 12, (Z)-7-[α-(2-amino-4-thiazolyl)-α-methoxyiminoacetamido]-3-[[6-(4-hydroxy-3-oxo-3,4-dihydro-2H-pyrido[4,3-b]-1,4-oxazinio)]methyl]-Δ^3-cephem-4-carboxylate] | < 0.2 | < 0.2 | 1.56 (≈ 2.78 µM) | < 0.2 | 1.56 (≈ 2.78 µM) | – | – | –

Now from value to compound, other results behind:

Row | MIC ([1]; E. coli NIHJ) [µg/mL] | MIC [2] [µg/mL] | MIC [3] [µg/mL] | MIC ([4]; Serr. marcescense NY-10) [µg/mL] | MIC [5] [µg/mL] | solubility [6] [mg/mL] | Compound | MIC [1] [µg/mL] | MIC [4] [µg/mL]
8 | < 0.2 | < 0.2 | 0.39 (≈ 0.678 µM) | 0.2 (≈ 0.347 µM) | 6.25 (≈ 10.9 µM) | – | CON=C(C(=O)NC1C(=O)N2C(C(=O)[O-])=C(C[n+]3ccc4c(c3)N(OC)C(=O)CO4)CSC12)c1csc(N)n1 (stereo not drawn) [Example 10] | – | –
9 | < 0.2 | < 0.2 | 0.39 (≈ 0.676 µM) | < 0.2 | 1.56 (≈ 2.71 µM) | – | CC(C)(ON=C(C(=O)NC1C(=O)N2C(C(=O)[O-])=C(C[n+]3cc(N)cc(N)c3)CSC12)c1csc(N)n1)C(=O)O (stereo not drawn) [Example 2, (Z)-7-[λ-(2-amino-4 thiazolyl)-λ-(1-carboxy-1-methylethoxyimino)acetamido]--3-(3,5-diamino-1-pyridiniomethyl)-Δ^3-cephem-4-carboxylate] | – | –
10 | < 0.2 | < 0.2 | 1.56 (≈ 3.09 µM) | < 0.2 | 0.2 (≈ 0.396 µM) | – | CON=C(C(=O)NC1C(=O)N2C(C(=O)[O-])=C(C[n+]3ccc(N)c(N)c3)CSC12)c1csc(N)n1 (stereo not drawn) [Example 3, (Z)-7-[λ-(2-amino-4-thiazolyl)-λ-(methoxyimino)acetamido]-3-(3,4-diamino-1-pyridiniomethyl)-Δ^3-cephem-4-carboxylate] | – | –
